Assay results taken from ChEMBL document CHEMBL4033638, “Effect of natural and semi-synthetic cadinanes from Heterotheca inuloides on NF-κB, Nrf2 and STAT3 signaling pathways and evaluation of their in vitro cytotoxicity in human cancer cell lines” (Bioorg Med Chem, 2017).
The source made the active and inactive calls. No cut-off for these calls is given here.

system: HCT-15; assay: Antiproliferative activity against human HCT15 cells at 50 uM after 48 hrs by sulforhodamine B assay relative to control; assay type: functional; conditions: not given

SMILES | inhibition
COc1cccc(C(=O)Oc2cc3c(cc2C)[C@@H](C(C)C)CC=C3C)c1 | inactive
Cc1cc2c(C(C)C)ccc(C)c2cc1OC(=O)c1cccc(Cl)c1 | inactive
Cc1cc2c(C(C)C)ccc(C)c2cc1OC(=O)c1cccc(C(F)(F)F)c1 | inactive

same assay, conditions: HCT-15, 48 h

SMILES | inhibition at 50 µM [%]
CC1=CC[C@H](C(C)C)c2cc(C)c(OC(=O)c3cccc(C(F)(F)F)c3)cc21 | 15
COc1ccc(C(=O)Oc2cc3c(C)ccc(C(C)C)c3cc2C)cc1 | 84
COc1cccc(C(=O)Oc2cc3c(C)ccc(C(C)C)c3cc2C)c1 | 35.2

system: U-251; assay: Antiproliferative activity against human U251 cells at 50 uM after 48 hrs by sulforhodamine B assay relative to control; assay type: functional; conditions: not given

SMILES | inhibition
COc1cccc(C(=O)Oc2cc3c(C)ccc(C(C)C)c3cc2C)c1 | inactive
COc1cccc(C(=O)Oc2cc3c(cc2C)[C@@H](C(C)C)CC=C3C)c1 | inactive
Cc1cc2c(C(C)C)ccc(C)c2cc1OC(=O)c1cccc(C(F)(F)F)c1 | inactive

same assay, conditions: U-251, 48 h

SMILES | inhibition at 50 µM [%]
CC1=CC[C@H](C(C)C)c2cc(C)c(OC(=O)c3cccc(C(F)(F)F)c3)cc21 | 29.3
COc1ccc(C(=O)Oc2cc3c(C)ccc(C(C)C)c3cc2C)cc1 | 42.6
Cc1cc2c(C(C)C)ccc(C)c2cc1OC(=O)c1cccc(Cl)c1 | 0.8

system: SK-LU-1; assay: Antiproliferative activity against human SK-LU-1 cells at 50 uM after 48 hrs by sulforhodamine B assay relative to control; assay type: functional; conditions: SK-LU-1, 48 h

SMILES | inhibition at 50 µM [%]
CC1=CC[C@H](C(C)C)c2cc(C)c(OC(=O)c3cccc(C(F)(F)F)c3)cc21 | 18.3
COc1ccc(C(=O)Oc2cc3c(C)ccc(C(C)C)c3cc2C)cc1 | 32.8
COc1cccc(C(=O)Oc2cc3c(C)ccc(C(C)C)c3cc2C)c1 | 30.6
COc1cccc(C(=O)Oc2cc3c(cc2C)[C@@H](C(C)C)CC=C3C)c1 | 24.2
Cc1cc2c(C(C)C)ccc(C)c2cc1OC(=O)c1cccc(Cl)c1 | 11.6
Cc1cc2c(C(C)C)ccc(C)c2cc1OC(=O)c1cccc(C(F)(F)F)c1 | 17.3

system: MCF7; assay: Antiproliferative activity against human MCF7 cells at 50 uM after 48 hrs by sulforhodamine B assay relative to control; assay type: functional; conditions: MCF7, 48 h

SMILES | inhibition at 50 µM [%]
CC1=CC[C@H](C(C)C)c2cc(C)c(OC(=O)c3cccc(C(F)(F)F)c3)cc21 | 86
COc1ccc(C(=O)Oc2cc3c(C)ccc(C(C)C)c3cc2C)cc1 | 93.4
COc1cccc(C(=O)Oc2cc3c(C)ccc(C(C)C)c3cc2C)c1 | 31.8
COc1cccc(C(=O)Oc2cc3c(cc2C)[C@@H](C(C)C)CC=C3C)c1 | 11.9
Cc1cc2c(C(C)C)ccc(C)c2cc1OC(=O)c1cccc(Cl)c1 | 11.4
Cc1cc2c(C(C)C)ccc(C)c2cc1OC(=O)c1cccc(C(F)(F)F)c1 | 41.5

molecular target: T1, Nuclear factor erythroid 2-related factor 2 (Homo sapiens) (UniProt Q16236); assay: Activation of Nrf2 in human HaCaT-ARE-Luc cells at 50 uM after 6 hrs by luciferase reporter gene assay relative to control; assay type: cell-based; conditions: not given
T1 sequence (whole entry): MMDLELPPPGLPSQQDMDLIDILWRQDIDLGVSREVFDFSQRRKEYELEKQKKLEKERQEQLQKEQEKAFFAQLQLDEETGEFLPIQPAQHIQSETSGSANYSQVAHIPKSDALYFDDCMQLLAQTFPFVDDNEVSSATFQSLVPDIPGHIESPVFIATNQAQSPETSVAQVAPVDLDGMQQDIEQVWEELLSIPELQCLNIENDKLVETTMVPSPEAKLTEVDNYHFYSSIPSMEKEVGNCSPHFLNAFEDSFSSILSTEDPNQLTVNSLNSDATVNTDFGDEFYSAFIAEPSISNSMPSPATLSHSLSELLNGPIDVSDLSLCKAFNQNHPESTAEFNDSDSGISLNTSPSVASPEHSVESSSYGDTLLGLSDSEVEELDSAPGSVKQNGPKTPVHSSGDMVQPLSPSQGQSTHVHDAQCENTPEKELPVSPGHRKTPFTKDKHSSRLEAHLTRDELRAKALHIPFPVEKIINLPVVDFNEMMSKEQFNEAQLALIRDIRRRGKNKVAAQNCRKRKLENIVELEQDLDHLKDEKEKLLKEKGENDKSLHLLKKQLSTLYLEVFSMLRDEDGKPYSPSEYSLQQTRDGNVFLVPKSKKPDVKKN

SMILES | fold change (FC)
CC1=CC[C@H](C(C)C)c2cc(C)c(OC(=O)c3cccc(C(F)(F)F)c3)cc21 | 1.9
COc1ccc(C(=O)Oc2cc3c(C)ccc(C(C)C)c3cc2C)cc1 | 1.3
COc1cccc(C(=O)Oc2cc3c(cc2C)[C@@H](C(C)C)CC=C3C)c1 | 1.6
Cc1cc2c(C(C)C)ccc(C)c2cc1OC(=O)c1cccc(C(F)(F)F)c1 | 1.9

Continued, values first:

fold change (FC) | SMILES
1.5 | COc1cccc(C(=O)Oc2cc3c(C)ccc(C(C)C)c3cc2C)c1
1.7 | Cc1cc2c(C(C)C)ccc(C)c2cc1OC(=O)c1cccc(Cl)c1

system: PC-3; assay: Antiproliferative activity against human PC3 cells at 50 uM after 48 hrs by sulforhodamine B assay relative to control; assay type: functional; conditions: PC-3, 48 h

SMILES | inhibition at 50 µM [%]
CC1=CC[C@H](C(C)C)c2cc(C)c(OC(=O)c3cccc(C(F)(F)F)c3)cc21 | 25.4
COc1ccc(C(=O)Oc2cc3c(C)ccc(C(C)C)c3cc2C)cc1 | 10.4
COc1cccc(C(=O)Oc2cc3c(C)ccc(C(C)C)c3cc2C)c1 | 12.5
COc1cccc(C(=O)Oc2cc3c(cc2C)[C@@H](C(C)C)CC=C3C)c1 | 16.3
Cc1cc2c(C(C)C)ccc(C)c2cc1OC(=O)c1cccc(Cl)c1 | 4.2
Cc1cc2c(C(C)C)ccc(C)c2cc1OC(=O)c1cccc(C(F)(F)F)c1 | 26.7

system: K562; assay: Antiproliferative activity against human K562 cells at 50 uM after 48 hrs by sulforhodamine B assay relative to control; assay type: functional; conditions: not given

SMILES | inhibition
COc1cccc(C(=O)Oc2cc3c(cc2C)[C@@H](C(C)C)CC=C3C)c1 | inactive
Cc1cc2c(C(C)C)ccc(C)c2cc1OC(=O)c1cccc(Cl)c1 | inactive
Cc1cc2c(C(C)C)ccc(C)c2cc1OC(=O)c1cccc(C(F)(F)F)c1 | inactive

same assay, conditions: K562, 48 h

SMILES | inhibition at 50 µM [%]
CC1=CC[C@H](C(C)C)c2cc(C)c(OC(=O)c3cccc(C(F)(F)F)c3)cc21 | 45.5
COc1ccc(C(=O)Oc2cc3c(C)ccc(C(C)C)c3cc2C)cc1 | 88.6
COc1cccc(C(=O)Oc2cc3c(C)ccc(C(C)C)c3cc2C)c1 | 14.2

molecular target: Signal transducer and activator of transcription 3 (Homo sapiens) (UniProt P40763); assay: Inhibition of IFNgamma-stimulated STAT3 (unknown origin) activation expressed in human HeLa cells at 50 uM after 6 hrs by luciferase reporter gene assay relative to control; assay type: cell-based; conditions: not given
Sequence (P40763 whole entry): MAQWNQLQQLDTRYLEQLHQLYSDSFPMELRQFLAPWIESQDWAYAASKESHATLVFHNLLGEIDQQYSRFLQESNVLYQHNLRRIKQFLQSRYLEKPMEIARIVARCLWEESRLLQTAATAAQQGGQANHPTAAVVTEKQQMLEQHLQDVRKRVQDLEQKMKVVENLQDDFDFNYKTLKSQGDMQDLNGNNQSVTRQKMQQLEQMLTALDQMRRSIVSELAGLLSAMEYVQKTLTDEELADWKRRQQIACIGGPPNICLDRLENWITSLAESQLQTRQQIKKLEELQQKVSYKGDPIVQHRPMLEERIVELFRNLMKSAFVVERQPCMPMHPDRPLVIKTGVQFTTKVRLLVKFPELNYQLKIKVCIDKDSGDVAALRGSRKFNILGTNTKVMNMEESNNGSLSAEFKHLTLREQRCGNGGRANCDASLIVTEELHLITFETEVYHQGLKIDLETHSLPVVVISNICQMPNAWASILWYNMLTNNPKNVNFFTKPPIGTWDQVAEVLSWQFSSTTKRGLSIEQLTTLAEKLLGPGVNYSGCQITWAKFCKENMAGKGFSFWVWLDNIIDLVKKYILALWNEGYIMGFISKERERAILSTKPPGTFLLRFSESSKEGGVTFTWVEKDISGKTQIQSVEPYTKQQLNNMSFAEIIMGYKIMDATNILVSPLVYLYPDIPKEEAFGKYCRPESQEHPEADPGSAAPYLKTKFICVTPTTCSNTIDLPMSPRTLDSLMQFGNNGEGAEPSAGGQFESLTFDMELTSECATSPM

SMILES | inhibition [%]
CC1=CC[C@H](C(C)C)c2cc(C)c(OC(=O)c3cccc(C(F)(F)F)c3)cc21 | 1.7
COc1ccc(C(=O)Oc2cc3c(C)ccc(C(C)C)c3cc2C)cc1 | 2.5
COc1cccc(C(=O)Oc2cc3c(cc2C)[C@@H](C(C)C)CC=C3C)c1 | 3.3
Cc1cc2c(C(C)C)ccc(C)c2cc1OC(=O)c1cccc(C(F)(F)F)c1 | 2.7

Other lines, results leading:

inhibition [%] | SMILES
0.8 | COc1cccc(C(=O)Oc2cc3c(C)ccc(C(C)C)c3cc2C)c1
1.8 | Cc1cc2c(C(C)C)ccc(C)c2cc1OC(=O)c1cccc(Cl)c1

system: not listed separately; assay: Inhibition of TNFalpha-stimulated NFkappaB (unknown origin) expressed in mouse NIH-3T3-KBFLuc cells at 50 uM after 6 hrs by luciferase reporter gene assay relative to control; assay type: cell-based; conditions: Homo sapiens

SMILES | inhibition [%]
CC1=CC[C@H](C(C)C)c2cc(C)c(OC(=O)c3cccc(C(F)(F)F)c3)cc21 | 4.4
COc1ccc(C(=O)Oc2cc3c(C)ccc(C(C)C)c3cc2C)cc1 | 26.9
COc1cccc(C(=O)Oc2cc3c(C)ccc(C(C)C)c3cc2C)c1 | 2.8
COc1cccc(C(=O)Oc2cc3c(cc2C)[C@@H](C(C)C)CC=C3C)c1 | 41.2
Cc1cc2c(C(C)C)ccc(C)c2cc1OC(=O)c1cccc(Cl)c1 | 25.6
Cc1cc2c(C(C)C)ccc(C)c2cc1OC(=O)c1cccc(C(F)(F)F)c1 | 4.8
